Laboratory results taken from ChEMBL document CHEMBL2216752, “Carnitine palmitoyltransferase (CPT) modulators: a medicinal chemistry perspective on 35 years of research” (J Med Chem, 2011).
Each block holds one compound with its values, some of them ahead of it.

Experiments:
[1] = target: T1, Carnitine O-palmitoyltransferase 1, muscle isoform (Homo sapiens, UniProt Q92523); assay: Inhibition of CPT1B
T1 sequence (Q92523 whole entry): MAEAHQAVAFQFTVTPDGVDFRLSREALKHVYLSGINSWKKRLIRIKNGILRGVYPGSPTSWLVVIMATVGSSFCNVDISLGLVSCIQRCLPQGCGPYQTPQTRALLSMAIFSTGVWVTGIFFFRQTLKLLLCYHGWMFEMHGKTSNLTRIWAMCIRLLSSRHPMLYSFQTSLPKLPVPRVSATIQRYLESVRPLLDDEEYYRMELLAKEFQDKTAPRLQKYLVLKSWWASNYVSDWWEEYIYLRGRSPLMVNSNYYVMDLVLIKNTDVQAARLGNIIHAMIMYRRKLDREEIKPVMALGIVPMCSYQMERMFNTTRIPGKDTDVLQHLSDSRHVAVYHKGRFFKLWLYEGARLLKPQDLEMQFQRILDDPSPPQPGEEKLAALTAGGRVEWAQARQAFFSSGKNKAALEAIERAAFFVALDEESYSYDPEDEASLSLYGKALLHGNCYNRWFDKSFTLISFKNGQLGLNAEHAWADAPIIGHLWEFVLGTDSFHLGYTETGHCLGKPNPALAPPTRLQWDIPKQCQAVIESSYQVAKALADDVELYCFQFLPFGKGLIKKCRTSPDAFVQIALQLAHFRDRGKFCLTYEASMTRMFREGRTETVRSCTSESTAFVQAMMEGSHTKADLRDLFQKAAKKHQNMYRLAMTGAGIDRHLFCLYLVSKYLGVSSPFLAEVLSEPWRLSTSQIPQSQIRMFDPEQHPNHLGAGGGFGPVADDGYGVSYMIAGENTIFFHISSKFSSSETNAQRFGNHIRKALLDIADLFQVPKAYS

[2] = target: T2, Carnitine O-palmitoyltransferase 1, liver isoform (Homo sapiens, UniProt P50416); assay: Inhibition of CPT1A
T2 sequence (P50416 whole entry): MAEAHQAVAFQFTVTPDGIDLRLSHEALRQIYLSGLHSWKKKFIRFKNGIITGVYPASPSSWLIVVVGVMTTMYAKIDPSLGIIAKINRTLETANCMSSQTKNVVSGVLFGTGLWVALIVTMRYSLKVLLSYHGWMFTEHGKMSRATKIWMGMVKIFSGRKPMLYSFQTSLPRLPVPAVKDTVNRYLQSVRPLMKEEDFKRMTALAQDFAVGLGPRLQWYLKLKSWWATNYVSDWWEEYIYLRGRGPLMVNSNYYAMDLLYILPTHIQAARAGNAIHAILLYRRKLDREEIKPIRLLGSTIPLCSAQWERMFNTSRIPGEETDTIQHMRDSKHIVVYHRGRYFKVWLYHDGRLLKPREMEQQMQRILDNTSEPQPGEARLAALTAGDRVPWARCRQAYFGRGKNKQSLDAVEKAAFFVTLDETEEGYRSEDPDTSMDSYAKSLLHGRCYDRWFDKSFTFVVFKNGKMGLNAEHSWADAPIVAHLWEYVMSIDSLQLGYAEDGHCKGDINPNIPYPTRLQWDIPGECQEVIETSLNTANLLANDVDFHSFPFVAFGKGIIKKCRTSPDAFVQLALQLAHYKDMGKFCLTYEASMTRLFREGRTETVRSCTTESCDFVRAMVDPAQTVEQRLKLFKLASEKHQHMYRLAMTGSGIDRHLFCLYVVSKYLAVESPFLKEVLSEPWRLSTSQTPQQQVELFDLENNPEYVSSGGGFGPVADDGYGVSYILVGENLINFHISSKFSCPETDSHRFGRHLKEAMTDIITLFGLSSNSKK

[3] = Inhibition of rat FAO
[4] = Inhibition of human FAO
[5] = Inhibition of carnitine palmitoyltransferase in rat liver mitochondria assessed as conversion of [14C]palmitic acid to [14C]palmitoylcarnitine by radiometric assay
Mus musculus = assay: Reduction in glucose level in db/db mouse at 30 mg/kgl/day, po for 12 days; assay type: functional; design: scale not given: the % may be the effect or the level left; details: dose 30 mg/kg
[6] = Critical micelle concentration of compound; assay type: physicochemical
[7] = Inhibition of carnitine palmitoyltransferase in rat heart mitochondria assessed as conversion of [14C]palmitic acid to [14C]palmitoylcarnitine by radiometric assay
[8] = target: T2, Carnitine O-palmitoyltransferase 1, liver isoform; assay: Inhibition of human CPT1A
[9] = target: T1, Carnitine O-palmitoyltransferase 1, muscle isoform; assay: Inhibition of human CPT1B
[10] = target: T3, Carnitine O-palmitoyltransferase 2, mitochondrial (Rattus norvegicus, UniProt P18886); assay: Inhibition of rat CPT2
T3 sequence (P18886 whole entry): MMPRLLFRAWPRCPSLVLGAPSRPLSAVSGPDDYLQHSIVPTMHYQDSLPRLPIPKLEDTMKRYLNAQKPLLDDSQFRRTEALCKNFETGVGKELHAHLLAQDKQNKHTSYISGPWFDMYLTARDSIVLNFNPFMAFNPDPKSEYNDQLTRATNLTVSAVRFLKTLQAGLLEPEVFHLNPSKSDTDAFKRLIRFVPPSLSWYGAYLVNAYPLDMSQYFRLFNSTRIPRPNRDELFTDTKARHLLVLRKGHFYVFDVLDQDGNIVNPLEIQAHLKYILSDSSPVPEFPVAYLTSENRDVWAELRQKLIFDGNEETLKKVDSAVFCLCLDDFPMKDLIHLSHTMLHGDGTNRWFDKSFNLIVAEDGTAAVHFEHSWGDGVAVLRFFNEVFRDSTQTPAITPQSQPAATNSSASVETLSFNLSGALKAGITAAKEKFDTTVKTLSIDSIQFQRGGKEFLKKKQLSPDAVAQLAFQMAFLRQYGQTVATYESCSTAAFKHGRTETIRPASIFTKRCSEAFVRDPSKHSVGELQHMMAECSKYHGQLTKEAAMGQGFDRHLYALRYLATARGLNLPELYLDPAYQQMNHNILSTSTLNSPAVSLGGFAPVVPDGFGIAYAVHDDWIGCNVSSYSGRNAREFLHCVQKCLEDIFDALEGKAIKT

[11] = target: T4, Carnitine O-palmitoyltransferase 2, mitochondrial (Homo sapiens, UniProt P23786); assay: Inhibition of human CPT2
T4 sequence (P23786 whole entry): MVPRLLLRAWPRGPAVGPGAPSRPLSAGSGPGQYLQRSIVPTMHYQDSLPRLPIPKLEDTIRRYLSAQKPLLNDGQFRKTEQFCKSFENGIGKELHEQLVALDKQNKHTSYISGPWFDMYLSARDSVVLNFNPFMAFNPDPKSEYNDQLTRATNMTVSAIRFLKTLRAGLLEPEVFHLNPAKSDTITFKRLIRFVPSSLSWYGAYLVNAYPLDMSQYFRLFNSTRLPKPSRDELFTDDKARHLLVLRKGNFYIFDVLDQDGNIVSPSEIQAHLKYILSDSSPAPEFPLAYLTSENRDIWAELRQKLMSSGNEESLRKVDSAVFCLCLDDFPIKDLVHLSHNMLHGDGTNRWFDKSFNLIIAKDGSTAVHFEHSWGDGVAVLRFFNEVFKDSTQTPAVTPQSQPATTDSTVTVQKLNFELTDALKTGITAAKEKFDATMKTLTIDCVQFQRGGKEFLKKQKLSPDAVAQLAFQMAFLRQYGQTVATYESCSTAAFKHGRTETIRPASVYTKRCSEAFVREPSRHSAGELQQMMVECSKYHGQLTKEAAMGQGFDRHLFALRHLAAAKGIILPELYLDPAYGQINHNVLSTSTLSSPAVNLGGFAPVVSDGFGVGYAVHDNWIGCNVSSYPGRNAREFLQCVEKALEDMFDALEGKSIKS

[12] = target: T2, Carnitine O-palmitoyltransferase 1, liver isoform; assay: Inhibition of human CPT1A expressed in Saccharomyces cerevisiae mitochondria assessed as palmitoylcarnitine by HPLC method
[13] = target: T5, Mitochondrial carnitine/acylcarnitine carrier protein (Homo sapiens, UniProt O43772); assay: Inhibition of CACT
T5 sequence (O43772 whole entry): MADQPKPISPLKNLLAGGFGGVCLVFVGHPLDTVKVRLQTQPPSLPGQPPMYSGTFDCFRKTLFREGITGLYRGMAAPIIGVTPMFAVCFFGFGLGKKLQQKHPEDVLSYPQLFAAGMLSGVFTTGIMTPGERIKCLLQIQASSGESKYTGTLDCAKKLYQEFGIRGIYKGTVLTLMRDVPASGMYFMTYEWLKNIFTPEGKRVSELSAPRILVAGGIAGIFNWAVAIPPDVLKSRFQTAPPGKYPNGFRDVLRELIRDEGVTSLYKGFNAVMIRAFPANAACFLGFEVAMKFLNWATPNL

Compound: CCCCCCCC[C@H]1OC(=O)C(CSCCNC(=O)CCNC(=O)[C@H](O)C(C)(C)COP(=O)(O)OP(=O)(O)OC[C@H]2O[C@@H](n3cnc4c(N)ncnc43)[C@H](O)[C@@H]2OP(=O)(O)O)[C@@H]1C(=O)O (stereo partly specified)
IC50 [1]: 0.36 µM
IC50 [2]: 0.24 µM

Compound: N[C@H](C(=O)O)c1ccc(O)cc1 [OXFENICINE]
IC50 [8]: > 100 µM
IC50 [3]: > 100 µM
IC50 [4]: > 100 µM
IC50 [9]: > 100 µM
IC50 [11]: > 100 µM

Compound: O=C(COc1ccccc1)N1CCCC[C@@H]1c1nc(-c2ccccn2)cs1
IC50 [8]: 0.02 µM
IC50 [9]: > 100 µM
IC50 [10]: 30.7 µM
IC50 [11]: 4.8 µM

Compound: CCCCCc1ccc(S(=O)(=O)NC2(CC(=O)[O-])CC[N+](C)(C)CC2)cc1
IC50 [12]: < 1 µM

Compound: CCCCCCCC(=O)O[C@@H](CC(=O)[O-])C[N+](C)(C)C
IC50 [13]: 35 µM

Compound: O=C(O)C1(C(F)(F)CCCCCOc2ccc(Cl)cc2)CO1 (stereo unspecified)
IC50 [1]: > 50 µM
IC50 [2]: 0.25 µM

The next lines start with results.

IC50 [3]: 4.4 µM
IC50 [4]: 1.8 µM
Compound: O=C(O)[C@@]1(CCCCCCOc2ccccc2)CO1 [DECHLOROETOMOXIR]

IC50 [3]: > 100 µM
IC50 [4]: 77 µM
Compound: CCCCCCCC[C@H]1OC(=O)C(C)=C1C(=O)O

IC50 [5]: 0.12 µM
CMC [6]: 0.55 mM
IC50 [7]: 57.3 µM
Compound: CCCCCCOc1cccc(OCCCCNC(=O)N[C@H](CC(=O)[O-])C[P+](C)(C)C)c1
Activity (Mus musculus): 30%

IC50 [8]: 2.4 µM
IC50 [3]: > 100 µM
IC50 [4]: 25.5 µM
IC50 [9]: 0.16 µM
IC50 [10]: > 100 µM
IC50 [11]: 4.7 µM
Compound: O=C(O)C(=O)c1ccc(OCCOc2ccc3ccccc3c2)s1

IC50 [9]: 6.4 µM
IC50 [10]: 28.5 µM
Compound: O=C(O)c1ccc(NC(=O)c2cccc(NS(=O)(=O)c3ccc(Cl)c(Cl)c3)c2)cc1
